{"source": "paper PMC8589421", "about": "“Impact of Type II LRRK2 inhibitors on signaling and mitophagy” (Biochemical Journal, 2021)", "system": "LRRK2 Ser935, Ser910, Ser955 and Ser973", "assay": "LRRK2 biomarker site phosphorylation in primary human neutrophils", "format": "cell-based", "conditions": "up to 3 μM", "description": "Cell extracts were mixed with a quarter of a volume of NuPage LDS Sample buffer 4× Invitrogen and heated at 95°C for 5 min. […] At the end of electrophoresis, proteins were electrophoretically transferred onto the nitrocellulose membrane (GE Healthcare, Amersham Protran Supported 0.45 µm NC) at 100 V for 90 min on ice in the transfer buffer (48 mM Tris–HCl and 39 mM glycine supplemented with 20% methanol). Transferred membrane was blocked with 5% (w/v) skim milk powder dissolved in TBS-T [20 mM Tris–HCl, pH 7.5, 150 mM NaCl and 0.1% (v/v) Tween 20] at room temperature for 1 h. The membrane was typically cropped into three pieces, namely the ‘top piece’ (from the top of the membrane to 75 kDa), the ‘middle piece’ (between 75 and 30 kDa) and the ‘bottom piece’ (from 30 kDa to the bottom of the membrane). All primary antibodies were used at 1 μg/ml final concentration and incubated in TBS-T containing 5% (by mass) bovine serum albumin with exception of α-tubulin and GAPDH antibodies that were diluted 1 : 5000 and 1 : 2000, respectively. The top piece was incubated with the indicated rabbit anti-LRRK2 phosphorylation site antibody multiplexed with mouse anti-LRRK2 C-terminus total antibody. […] Protein bands were acquired via near infrared fluorescent detection using the Odyssey CLx imaging system and quantified using the Image Studio software. […]", "data": [{"smiles": "Cc1ccc(C(=O)Nc2ccc(CN3CCN(C)CC3)c(C(F)(F)F)c2)cc1C#Cc1cnc2[nH]ncc2c1", "note": "[GZD-824]", "values": [{"measurement": "phosphorylation of Ser935, Ser910, Ser955 and Ser973", "result": "unaffected"}]}]}
